These are literature values, as cited in patent US7312207B2, “Topical steroid cream formulations” (Taro Pharmaceuticals North America, Inc., priority 2004, dated 2007).

Molecules are shown by their SMILES.

As to `C[C@@H]1C[C@H]2[C@@H]3CCC4=CC(=O)C=C[C@]4(C)[C@@]3(Cl)[C@@H](O)C[C@]2(C)[C@@]1(OC(=O)c1ccco1)C(=O)CCl` [Mometasone furoate, 9(alpha), 21-Dichloro-11(beta), 17-dihydroxy-16(alpha)-methylpregna-1,4-diene-3,20 dione 17-(2-furoate)], the “solubility in ethyl alcohol” value (ethyl alcohol) is on record as “moderately soluble”. The solubility in octanol result (octanol) was “slightly soluble”. Further, the solubility in water entry (water) is “insoluble”.
